Columns and labels:
[1] = In vitro stability in DMEM medium, simulated gastric fluid and simulated intestinal fluid (HPLC); assay type: in vitro ADME; settings: 40 μM, 37 °C
Experimental: Elafibranor and 3d (40 μM) were dissolved in DMEM medium, as well as in simulated gastric fluid (SGF) and simulated intestinal fluid (SIF), respectively, at 37 °C. The concentration of the compounds was determined within 24 h by HPLC. The HPLC conditions comprised an ACQUITY UPLC BEH C18 column maintained at 40 °C with a mobile phase consisting of 20% ultrapure water and 80% acetonitrile, with a flow rate of 1 mL/min at 360 nm.

[2] = in vivo; cited from earlier work
C57BL/6J male mice = assay: HFD-induced MASH model in mice: serum and liver biochemistry, body and liver weight, histology; assay type: in vivo; settings: HFD mice; for body weight: 8 weeks of treatment; for serum TG levels: 8 weeks, fenofibrate 100 mg/kg, elafibranor 30 mg/kg, 3d 3, 10, 30 mg/kg; for liver weight/body weight: indicator for evaluating drug toxicity
Experimental: All animal studies were conducted in accordance with national legislation and local guidelines at the Center for Laboratory Animals in Tianjin University of Science and Technology and approved by the Animal Ethics Committee of Tianjin University of Science and Technology (8 March 2022, Tianjin, China). The C57BL/6J male mice (6 weeks) were purchased from Henan Scribex Biotechnology Co, Ltd (Zhenzhou, China). Following a one-week period of acclimatization, the mice were fed a high-fat diet (HFD) comprising 60% fat (TP23300, Trophic Animal Feed High-Tech Co., Ltd., (Nantong, China)) and a low-fat control diet (TP23302, Trophic Animal Feed High-Tech Co., Ltd., (Nantong, China)) for 16 weeks.
After 16 weeks of continuous feeding on a high-fat diet, key indicators were tested to determine modeling success and drug administration was initiated. The mice were randomly divided into seven groups (n = 10) according to their body weight. The groups were as follows: control group (control diet, 0.5% CMC-Na), model group (HFD, 0.5% CMC-Na), positive control group (HFD, 100 mg/kg Fenofibrate), elafibranor group (HFD, 30 mg/kg), and 3d group (HFD, 3, 10, 30 mg/kg). The experiment was conducted over a period of eight weeks.
After fasting for 12 h, the mice were anaesthetized and blood samples were collected, as were the mice liver tissues. The ileal contents were collected and immediately frozen in liquid nitrogen and then transferred to storage at −80 °C. The blood samples were subjected to centrifugation at 3000 rpm/min for 10 min to obtain supernatant serum, which was stored at −80 °C. The liver tissues were weighed, and a portion of the liver was preserved in 4% paraformaldehyde for subsequent pathological sectioning, including staining with H&E, Masson, and Oil Red O. The remaining samples were stored at −80 °C for testing of various biochemical indices.
The serum levels of TG, total cholesterol (TC), low-density lipoprotein cholesterol (LDL-C), […] aminotransferase (AST), ALT, and TNF-α were determined according to the instructions of the kit. The levels of glutathione (GSH) and superoxide dismutase (SOD) were measured using liver tissue homogenates. The kits were purchased from the Nanjing Jiancheng Institute of Biological Engineering (Nanjing, China).

concentration in culture medium (stability) ([1]; DMEM, within 24 h)	concentration in gastric fluid (stability) ([1]; SGF)	concentration in intestinal fluid (stability) ([1]; SIF, within 24 h)	Structure (SMILES)	oral bioavailability [2]	liver steatosis and lipid accumulation (HE, Oil Red O sections) (C57BL/6J male mice)	body weight (C57BL/6J male mice)	serum TG levels (C57BL/6J male mice)	liver weight/body weight (C57BL/6J male mice)
remained relatively constant	decreased significantly after 60 min	remained relatively constant	CSc1ccc(C(=O)/C=C/c2cc(C)c(OC(C)(C)C(=O)O)c(C)c2)cc1 [elafibranor, Elafibranor, reference compound]	around 30%	effective in reducing the degree of steatosis and reducing lipid accumulation better than fenofibrate but still could not bring them back to fully normal	decrease in body weight	decreased and returned to normal levels	substantial influence on the rise
			CC(C)OC(=O)C(C)(C)Oc1ccc(C(=O)c2ccc(Cl)cc2)cc1 [fenofibrate, Fenofibrate, reference compound]		improved the steatosis and reduced lipid accumulation in the liver to some extent	decrease in body weight	decreased and returned to normal levels	substantial influence on the rise

Reference: PMC12113347, “Compound 3d Attenuates Metabolic Dysfunction-Associated Steatohepatitis via Peroxisome Proliferator-Activated Receptor Pathway Activation and Inhibition of Inflammatory and Apoptotic Signaling” (Metabolites, 2025)
